“Also recorded” adds a separate entry of the source.
B1: R-spondin1: a potent WNT agonist (protein, UniProt Q2MKA7 21-263, looked up)
R-spondin-1: SRGIKGKRQRRISAEGSQACAKGCELCSEVNGCLKCSPKLFILLERNDIRQVGVCLPSCPPGYFDARNPDMNKCIKCKIEHCEACFSHNFCTKCKEGLYLHKGRCYPACPEGSSAANGTMECSSPAQCEMSEWSPWGPCSKKQQLCGFRRGSEERTRRVLHAPVGDHAACSDTKETRRCTVRRVPCPEGQKRRKGGQGRRENANRNLARKESKEAGAGSRRRKGQQQQQQQGTVGPLTSAGPA

What was measured:
[1] = tested on: Paneth cells in ENR+CD organoids; test: Flow cytometry of 3D-cultured intestinal organoids, Paneth cells (lysozyme-positive, CD24-positive); format: cell-based, mouse; conditions: 160 nM KPT-8602 or 2 ng/mL Leptomycin B, ENR+CD 6 days
From the text: Flow cytometry analysis (3D culture). ISC-enriched organoids cultured in 3D Matrigel with ENRCV media were passaged to 24-well plate in 3D Matrigel with ENRCV. At day zero, media were replaced to ENRCD with or without indicated compounds, and media were replaced every other day. At day six, cells were washed with basal media, and then harvested from Matrigel by mechanical disruption in TrypLE Express (ThermoFisher, 12605010) to remove Matrigel and dissociate organoids to single cells. After vigorous pipetting and incubation at 37° C. for 20 min, dissociated organoids were strained through a 35 μm cell strainer into a tube (Falcon, 352235). […] Cell pellets were resuspended in FACS buffer (2% FBS in PBS), and then transferred to an ultra low-bind 96-well plate (Corning, 7007). Cells were stained with Zombie-violet viability dye (BioLegend, 423107) at 100× for viability staining and/or antibody staining solution. FITC-conjugated antibody for lysozyme (Dako, F0372) and APC-conjugated antibody for CD24 (BioLegend, 138505) were used at 100× dilution. Flow cytometry was performed using an LSR Fortessa (BD; Koch Institute Flow Cytometry Core at MIT). The data were analyzed using FlowJo v10 software.
The results of primary and secondary screening reflect a mixture of potential effects arising from small molecule treatment which may result in increases in total LYZ secretion. This includes contributions from enhanced Paneth cell differentiation, altered Paneth cell activity and changes in total cell number concurrent with differentiation. To better inform how the 6 compounds identified in the screen increased total secreted LYZ, and to isolate only those which enhance Paneth differentiation robustly, Applicants next utilized flow cytometry to measure the changes in Paneth cell representation within the treated organoids. […] Single live cells were selected by several gating strategies and Paneth cells were identified as lysozyme-high, CD24-mid, side scatter-high (SSC-high) (FIG. 27E). […] To evaluate whether the culture media supplements C and D may alter the effects of the 6 hits, Applicants also performed lysozyme assay in the canonical ENR culture condition in 3-D (because Paneth cells exist in an immature state within ENR, Applicants were unable to robustly quantify Paneth cell number via flow cytometry).
Flow cytometry. ISC-enriched organoids in 3D Matrigel culture were passaged to a 48-well plate and induced differentiation for 6 days by ENR+CD media containing DMSO or each drug indicated in the figures. DMSO- or drug-containing media were changed every other day. On day 6, cells were washed twice with basal media, then harvested from Matrigel by the mechanical disruption in TrypLE Express (Thermo, #12605010) to remove Matrigel and dissociate organoids to single cells. After vigorous pipetting and incubation at 37° C. for 15 min, the cell solution was diluted twice with basal media and centrifuged at 300 ref for 3 min. The cell pellet was resuspended in FACS buffer (PBS containing 2% FBS) and replaced into a 96-well Clear Round Bottom Ultra-Low Attachment Microplate (Corning, #7007). The cell solution was centrifuged again at 300 rcf for 3 min at 4° C. to pellet the cells. Cells were stained with Zombie-violet dye (BioLegend, #423113) at 100× for viability staining for 20 min at RT in the dark. After centrifugation for 3 min at 300 rcf, cells were fixed in fixation buffer (FACS buffer containing 1% formaldehyde (Thermo, #28906)) for 15 min on ice in the dark. Cells were centrifuged again for 3 min at 300 rcf and blocked with staining buffer (FACS buffer containing 0.5% Tween20 (Sigma, P2287)) for 15 min at RT in the dark. Pelleted cells by the centrifugation for 3 min at 300 rcf are stained with FITC-conjugated anti-lysozyme antibody (Dako, F0372) and APC-conjugated anti-CD24 antibody (Biolegend, #138505) at 100× for 45 min at RT in the dark.

[2] = tested on: lysozyme (LYZ) in intestinal organoids; test: Western blotting of lysozyme in 3D-cultured intestinal organoids; format: cell-based, mouse; conditions: ENR+CV, ENR+CD or ENR, 6 days
From the text: Western blotting. ISC-enriched organoids cultured in 3D Matrigel with ENRCV media were passaged to 24-well plate in 3D Matrigel with ENRCV. At day zero, media were replaced to ENR or ENRCD with or without indicated compounds, and media were replaced every other day. At day six, cells were harvested from Matrigel by mechanical disruption and suspended in basal media. Cell pellets were lysed with Pierce® IP lysis buffer (ThermoFisher, 87787) containing Halt™ Protease Inhibitor Cocktail, EDTA-Free (ThermoFisher, 87785) after 3-minute centrifuge at 300×g at 4° C. Cell extracts were resolved by NuPAGE® SDS-PAGE Gel system (ThermoFisher) and electroblotted onto polyvinylidene difluoride membranes using Criterion™ Blotter (Biorad). The membranes were blocked with 2% Blotting-Grade Blocker (Biorad, 1706404) in TBS-T (50 mM Tris-HCl, 150 mM NaCl, and 0.1% Tween 20, pH 8.0) and then probed with appropriate antibodies. Detection was performed using ECL Select™ Western Blotting Detection Reagent (Amersham, 45-000-999) and ImageQuant LAS4000 (GE Healthcare).
Western blotting. Organoid-containing gel was homogenized in basal medium and centrifuged at 300 rcf for 3 min. Organoid pellet was lysed with ice-cold Pierce IP Lysis Buffer (Thermo Fisher Scientific, #87787) containing Halt Protease Inhibitor Cocktail, EDTA-Free (Thermo Fisher Scientific, #87785) and incubated on ice for 20 min. The lysate was centrifuged at 17,000 rcf for 10 min, and the supernatant was combined with NuPAGE LDS Sample Buffer (Thermo Fisher Scientific, NP0007). Protein concentration was determined by Pierce 660 nm Protein Assay (Thermo Fisher Scientific, #22660) and normalized to the lowest concentration among each sample set. […] Chemiluminescent signals were detected by LAS4000 (GE Healthcare) using Amersham ECL Select Western Blotting Detection Reagent (GE Healthcare, #45-000-999), and total protein signals were obtained by Odyssey Imaging System (LI-COR Biosciences) using REVERT Total Protein Stain Kit (LI-COR Biosciences, #926-11010).

[3] = Roberts et al, 1986; cited from earlier work
[4] = Newlands et al, 1996; cited from earlier work
intestinal organoids = test: Population RNA-sequencing of treated organoids; format: cell-based, mouse; conditions: ENR+CV, ENR+CD or ENR
Procedure: Population RNA-sequencing. Population RNA-seq was performed using a derivative of the Smart-Seq2 protocol for single cells. In brief, organoid media was aspirated and RLT+BME (Qiagen) was added to each well, and plate shaken for 30 minutes to fully lyse. Lysate was aliquoted into 4 identical fractions and stored at −80° C. until reverse transcription. RNA lysate was thawed and cleaned with a 2.2×SPRI ratio using Agencourt RNAClean XP beads (Beckman Coulter, A63987). RNA-seq was performed on a bulk population of sorted basal cells using Smart-Seq2 chemistry, starting with a 2.2×SPRI ratio cleanup. After oligo-dT priming, Maxima H Minus Reverse Transcriptase (ThermoFisher EP0753) was used to synthesize cDNA with an elongation step at 52° C. before PCR amplification (15 cycles for tissue, 18 cycles for sorted basal cells) using KAPA HiFi PCR Mastermix (Kapa Biosystems KK2602). Sequencing libraries were prepared using the Nextera XT DNA tagmentation kit (Illumina FC-131-1096) with 250 pg input for each sample. Libraries were pooled post-Nextera and cleaned using Agencourt AMPure SPRI beads with successive 0.7× and 0.8× ratio SPRIs and sequenced with an Illumina 75 Cycle NextSeq500/550v2 kit (Illumina FC-404-2005) with loading density at […], with paired end 35 cycle read structure. Samples were sequenced at an average read depth of 8.44 million reads per sample and a total of 96 samples.
Organoid samples were aligned to the Mm10 genome and transcriptome using STAR and RSEM. […] For module scoring with the in vivo Paneth and enteroendocrine cell-defining genes, Applicants used previously published gene sets and computed per sample module scores through the Seurat package.

ISCs / Paneth cells = conditions: Hayase et al., 2017; cited from earlier work

Molecule	Paneth cell representation / proportion in organoids [1]	Paneth cell representation / proportion in organoids ([1]; listed as leptomycin B)	LYZ abundance per-mass protein (Western blot) [2]	tolerability in animals [3]	tolerability in humans [4]	secretory cell gene set scores (Paneth, goblet, EEC) from bulk transcripts (intestinal organoids)	alpha-defensin secretion and dysbiosis in mice with GvHD (ISCs / Paneth cells)
CCC(=C/[C@H](C)C/C=C/C(C)=C/[C@@H](C)C(=O)[C@@H](C)[C@H](O)[C@@H](C)C/C(C)=C/C(=O)O)/C=C/[C@@H]1OC(=O)C=C[C@@H]1C [Leptomycin B]	statistically significant increases in Paneth cell representation; also recorded: statistically significant increases in the Paneth cell fraction	increased the proportion of PC	appreciably increase LYZ abundance	poorly tolerated with marked gastrointestinal toxicity	poorly tolerated with marked gastrointestinal toxicity	–	–
NC(=O)/C(=C/n1cnc(-c2cc(C(F)(F)F)cc(C(F)(F)F)c2)n1)c1cncnc1 [KPT-8602]	statistically significant increases in Paneth cell representation; also recorded: statistically significant increases in the Paneth cell fraction; also recorded: increased the proportion of PC	–	appreciably increase LYZ abundance	–	–	increase secretory cells (Paneth, goblet, and EEC)	–
B1	–	–	–	–	–	–	elevate the secretion of alpha-defensins and resolve dysbiosis seen in mice with GvHD

From patent publication US20220323406A1, “METHODS AND COMPOSITIONS FOR DIFFERENTIATING STEM CELLS” (Massachusetts Institute of Technology, priority 2019, published 2022)
